# Data: US7528106B2, “Compositions and methods for treatment of neovascular diseases” (The Scripps Research Institute, priority 2004, dated 2009)
# “And” between values parts separate entries of the source, which are not always exact repeats. Identical values can stand only once.
# Tested on: deep retinal vascular network formation in neonatal Balb/C mice
# Test: Neonatal mouse retinal angiogenesis model
# Assay type: in vivo
# Text: Description of the Model. Immediately after birth (postnatal day zero; “P0”), retinal vasculature is virtually absent in the mouse. By four weeks after birth (P28) the retina has attained an adult pattern of retinal vessels coincident with the onset of vision. Physiological neovascularization of the retina occurs during this period via a stereotypical, biphasic developmental pattern of angiogenesis. During the primary phase of retinal vascular development, spoke-like peripapillary vessels grow radially from the central retinal artery and vein, becoming progressively interconnected by a capillary plexus that forms between them. This “inner retinal plexus” grows in area, volume and complexity, centrifugally, as a monolayer within the nerve fiber layer during the first seven to ten days following birth.
# The second phase of retinal vessel formation begins between postnatal days 7 (P7) and 10 (P10) when collateral branches sprout from capillaries of the superficial plexus and penetrate into the retina where their tips branch and anastamose laterally to form a planar “deep vascular plexus”. While the deep vascular plexus is in place by P14, it undergoes extensive remodeling from P14 to P21. It is of interest to note that the formation of these vascular networks in the neonatal mouse are strikingly similar to the events occurring in the third trimester human fetus.
# Advantages and Quantification of the Model. The reproducibility of the murine retinal development process and its easy accessibility in neonatal animals provide an opportunity to assess the efficacy of antiangiogenic compounds in a physiologically relevant model of angiogenesis. Additional advantages of the neonatal mouse model are the ability to qualitatively and quantitatively evaluate the angiostatic effect of putative antagonists of angiogenesis. Angiostatic activity was evaluated based upon the degree of angiogenesis in the deep, outer retinal vascular layer (secondary layer) that develops between P8 and P12. The appearance of the inner blood vessel network (primary layer) was evaluated for normal development and signs of toxicity.
# Preparation of Compositions. Peptidomimetic integrin signaling inhibitor Compound (1) is solubilized in PBS at a concentration of about 20 mg/ml in PBS (1× concentration). T2-TrpRS is solubilized in PBS at a concentration of about 0.5 mg/ml (1× concentration). VEGF aptamer (pegaptanib sodium; Compound (2)) is solubilized in PBS at a concentration of about 2 mg/ml (1× concentration) to achieve an injection of approximately 1 μg/eye at 1× concentration. For all combination assays the compounds were prepared at 2 or 3 times the 1× concentration of each material and then combined to produce a final solution containing each individual compound at the same concentration as was used alone (e.g., 1×, 0.5×, 0.25× or 0.1×, as the case may be). For all assays, a single injection of 0.5 μl of PBS solutions of the drugs was administered intravitreally regardless of the number of compounds being injected. As used herein, the term “0.1×” refers to one tenth of the 1× concentration of a given material, “0.25×” refers to one quarter of the 1× concentration of a given material, “0.5×” refers to one half of the 1× concentration of a given material, and so forth for similar designations.
# An in vivo angiogenesis assay in the neonatal mouse (Balb/C, The Jackson Laboratory, Bar Harbor, Me.) was used to evaluate the angiostatic activity of integrin signaling inhibitor Compound (1), T2-TrpRS, and VEGF aptamer Compound (2). Intravitreous injection and retina isolation was performed with a dissecting microscope (SMZ 645, Nikon, Japan). […] The samples (0.5 μl) were injected with a Hamilton syringe fitted with a 32-gauge needle (Hamilton Company, Reno, Nev.). The injection was made between the equator and the corneal limbus. During injection, the location of the needle tip was monitored by direct visualization to determine that it was in the vitreal cavity. […]
# [1] = Ex 1, 0.1× (1×=20 mg/ml), intravitreal P8, read P12
# [2] = Ex 5, 0.5× (1×=20 mg/ml), intravitreal P4, read P12
# [3] = Ex 6, 0.5× (1×=20 mg/ml), intravitreal P4, read P12
# [4] = Ex 7, 0.5× (1×=20 mg/ml), intravitreal P4, read P12
# [5] = Ex 9, 1× of each (Comp. (1) 20, Comp. (2) 2, T2-TrpRS 0.5 mg/ml), intravitreal P4, read P12
# [6] = Table 12, composite data from the Examples, 1×-2×
# [7] = Table 13A, 5-10 μg per eye, intravitreal P7, read P12
# [8] = Table 13C low dosing, 0.1x (integrin ant. 1.0 μg, VEGF apt. 0.20 μg, T2-TrpRS 0.025 μg)
smiles,measurement,setting,value
CC(C)(C)COC(=O)N[C@@H](Cc1ccc2c(c1)NC(=O)[C@@H](CCC(=O)Nc1ncc[nH]1)O2)C(=O)[O-].[Na+] [Compound (1)],inhibition of neovascularization,"0.1× concentrations (1 μg/eye integrin antagonist, 0.2 μg/eye VEGF aptamer, 0.025 μg/eye T2-TrpRS)",negligible
same,% of eyes with 0-10% inhibition of deep vascular layer,[1],40%
same,% of eyes with 10-25% inhibition of deep vascular layer,[1],0.5%
same,% of eyes with 25-50% inhibition of deep vascular layer,[1],20%
same,% of eyes with 50-75% inhibition of deep vascular layer,[1],20%
same,% of eyes with 75-100% inhibition of deep vascular layer,[1],20%
same,% of eyes with 0-10% inhibition of deep vascular layer,[2],50%
same,% of eyes with 10-25% inhibition of deep vascular layer,[2],33.3%
same,% of eyes with 25-50% inhibition of deep vascular layer,[2],16.7%
same,% of eyes with 50-75% inhibition of deep vascular layer,[2],0%
same,% of eyes with 75-100% inhibition of deep vascular layer,[2],0%
same,% of eyes with 100% inhibition of deep vascular layer,[2],0%
same,% of eyes with >95% inhibition of deep vascular layer,[2],0%
same,% of eyes with 0-10% inhibition of deep vascular layer,[3],50%
same,% of eyes with 10-25% inhibition of deep vascular layer,[3],12.5%
same,% of eyes with 25-50% inhibition of deep vascular layer,[3],12.5%
same,% of eyes with 50-75% inhibition of deep vascular layer,[3],12.5%
same,% of eyes with 75-100% inhibition of deep vascular layer,[3],12.5%
same,% of eyes with 100% inhibition of deep vascular layer,[3],0%
same,% of eyes with >95% inhibition of deep vascular layer,[3],0%
same,% of eyes with 0-10% inhibition of deep vascular layer,[4],12.5%
same,% of eyes with 10-25% inhibition of deep vascular layer,[4],25%
same,% of eyes with 25-50% inhibition of deep vascular layer,[4],12.5%
same,% of eyes with 50-75% inhibition of deep vascular layer,[4],12.5%
same,% of eyes with 75-100% inhibition of deep vascular layer,[4],37.5%
same,% of eyes with 100% inhibition of deep vascular layer,[4],0%
same,% of eyes with >95% inhibition of deep vascular layer,[4],0%
same,% of eyes with 0-10% inhibition of deep vascular layer,[5],25%
same,% of eyes with 10-25% inhibition of deep vascular layer,[5],12.5%
same,% of eyes with 25-50% inhibition of deep vascular layer,[5],12.5%
same,% of eyes with 50-75% inhibition of deep vascular layer,[5],37.5%
same,% of eyes with 75-100% inhibition of deep vascular layer,[5],12.5%
same,% of eyes with 100% inhibition of deep vascular layer,[5],0%
same,% of eyes with >95% inhibition of deep vascular layer,[5],0%
same,% of mice with 0-10% inhibition of deep vascular layer,[6],33.3%
same,% of mice with 10-25% inhibition of deep vascular layer,[6],20%
same,% of mice with 25-50% inhibition of deep vascular layer,[6],13.3%
same,% of mice with 50-75% inhibition of deep vascular layer,[6],16.7%
same,% of mice with 75-100% inhibition of deep vascular layer,[6],16.7%
same,% of mice with 100% inhibition of deep vascular layer,[6],0%
same,% of mice with >95% inhibition of deep vascular layer,[6],0%
same,Percentage of retinas with 0-10% neovascular inhibition,[7],33.3%
same,Percentage of retinas with 10-25% neovascular inhibition,[7],20.0%
same,Percentage of retinas with 25-50% neovascular inhibition,[7],13.3%
same,Percentage of retinas with 50-75% neovascular inhibition,[7],16.7%
same,Percentage of retinas with 100% neovascular inhibition,[7],0.0%
same,Percentage of retinas with >75% neovascular inhibition,[7],16.7%
same,Percentage of retinas with >90% neovascular inhibition,[7],0.0%
same,Percentage of retinas with 0-10% neovascular inhibition,[8],90%
same,Percentage of retinas with 10-25% neovascular inhibition,[8],10%
same,Percentage of retinas with 25-50% neovascular inhibition,[8],0%
same,Percentage of retinas with 50-75% neovascular inhibition,[8],0%
same,Percentage of retinas with 100% neovascular inhibition,[8],0%
same,Percentage of retinas with >75% neovascular inhibition,[8],0%
same,Percentage of retinas with >90% neovascular inhibition,[8],0%
same,optimal effective dose,"dosing experiments, bell-shaped efficacy curve, listed as integrin antagonist",5-10 μg per eye and 10-20 nmoles per eye
same,retinas that exhibited over 75% inhibition,monotherapy at optimal dose,17%
same,retinas unaffected by injection,monotherapy at the maximum individual dose,around 35%
